Data reported in US20090005395A1 (Solvay Pharmaceuticals, B.V., priority 2007, published 2009).
Like-named read-outs stand apart in the source and are kept apart here.

Legend:
[1] = Plasma pharmacokinetics of sildenafil and its N-oxide; assay type: in vivo; details: male, NMRI, mouse, mice; for Kp: brain, read-out: Brain/plasma ratio; for AUC: read-out: AUC0→end; for AUC(0-inf): Tend = ∞
Experimental: Liquid Chromatography-Tandem Mass Spectrometry (LC-MS/MS) was performed using a Sciex API4000 LC-MS/MS. […] Compound peak area was used for quantification. The calibration curves were fitted to the model y=A+Bx+Cx^2 (y is the peak area of the analyte, x is the nominal calibration level in ng/ml (plasma) or ng/g (brain), A is the intercept, B is the slope and C is the description of the curvature). 1/x^2 weighing was used. LC-MS/MS system performance was monitored using a reference solution injected at standard intervals. […] The Lower Limit Of Quantification (LLOQ) was established at 1.00 ng/ml and 5.00 ng/brain, for plasma and brain samples, respectively. Reversed phase HPLC was performed using gradient elution by a Hypersil BDS C18 100×4.6 mm 3 μm analytical column, with a temperature of 45° C. and a flow of 1.00 ml/min: […]

[2] = Reduction of sildenafil N-oxide in the human colon model TIM2; assay type: in vitro ADME
Experimental: The human colon model TIM2 (TNO Intestinal Model 2) is a dynamic model for the human large intestine that simulates in vivo conditions. It is an artificial digestive system that has been validated by many studies (Minekus, 1999).
Suspended in 1% methylcellulose, sildenafil-N-oxide (1 mg) was inserted into the lumen (120 ml) of the TIM2 model (see above, Minekus, 1999). Samples from the lumen and the dialysate (the latter being a model for the vascular bed of the intestines) were taken at various time intervals, and analyzed for sildenafil-N-oxide and sildenafil.

PDE-III = PDE-III (Homo sapiens, UniProt Q14432); experiment: In vitro inhibition of phosphodiesterases (CEREP): PDE-III
PDE-III, sequence (Q14432 674-1093 limits assumed): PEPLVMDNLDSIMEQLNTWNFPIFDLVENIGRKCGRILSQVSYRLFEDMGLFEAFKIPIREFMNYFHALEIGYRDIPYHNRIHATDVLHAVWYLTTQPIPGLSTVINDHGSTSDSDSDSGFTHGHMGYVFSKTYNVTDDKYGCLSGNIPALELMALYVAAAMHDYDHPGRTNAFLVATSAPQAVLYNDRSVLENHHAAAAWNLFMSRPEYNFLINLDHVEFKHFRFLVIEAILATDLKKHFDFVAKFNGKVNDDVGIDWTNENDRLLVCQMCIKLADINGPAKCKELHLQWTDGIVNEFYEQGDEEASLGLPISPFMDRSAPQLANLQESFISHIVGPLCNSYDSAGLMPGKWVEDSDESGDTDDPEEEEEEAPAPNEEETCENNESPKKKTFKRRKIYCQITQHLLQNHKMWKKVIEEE

[3] = TIM2, 1 mg in 1% methylcellulose into lumen (120 ml), 0 h
[4] = TIM2, 1 mg into lumen (120 ml), 2 h
[5] = TIM2, 1 mg into lumen (120 ml), 4 h
[6] = TIM2, 1 mg into lumen (120 ml), 6 h
[7] = TIM2, 1 mg into lumen (120 ml), 8 h
[8] = TIM2, 1 mg into lumen (120 ml), 24 h

## CCCc1nn(C)c2c(=O)[nH]c(-c3cc(S(=O)(=O)N4CC[N+](C)([O-])CC4)ccc3OCC)nc12 [Sildenafil-N-oxide, 1-[[3-(6,7-dihydro-1-methyl-7-oxo-3-propyl-1H-pyrazolo[4,3-d]pyrimidin-5-yl)-4-ethoxyphenyl]sulfonyl]-4-methyl-4-oxido-piperazine]
[1]; iv, i.v. 1 mg/kg
  Kp: 0.5
[1]; po, p.o. 10 mg/kg
  Kp: 2.5
[1]; iv, plasma, i.v. 1 mg/kg
  Tmax: 0 h
  half-life: 0.4 h
  AUC(0-inf): 125 ng·h/mL
[1]; iv, plasma, i.v. 1 mg/kg, Tend = 3 hrs
  AUC: 125 ng·h/mL
[1]; iv, plasma, i.v. 1 mg/kg, extrapolated to T0 (time zero), read-out: Cmax (C0)
  Cmax: 495 ng/mL
[1]; plasma, iv, i.v. 1 mg/kg
  Vd: 5 L/kg
  clearance: 133 mL/min/kg
[1]; plasma, po, 10 mg/kg, i.v.
  bioavailability: 1.5%
[1]; po, plasma, p.o. 10 mg/kg
  Tmax: 1 h
  half-life: 5.1 h
  AUC(0-inf): 18.8 ng·h/mL
[1]; po, plasma, p.o. 10 mg/kg, Tend = 24 hrs
  AUC: 10.8 ng·h/mL
[1]; po, plasma, p.o. 10 mg/kg, read-out: Cmax
  Cmax: 2.7 ng/mL
[2]; [3]
  Sildenafil-N-oxide Dialysate concentration: <1.0 ng/mL
  Sildenafil-N-oxide Lumen concentration: <1.0 ng/mL
[2]; [4]
  Sildenafil-N-oxide Dialysate concentration: 33 ng/mL
  Sildenafil-N-oxide Lumen concentration: 6.6 ng/mL
[2]; [5]
  Sildenafil-N-oxide Dialysate concentration: <1.0 ng/mL
  Sildenafil-N-oxide Lumen concentration: 4.7 ng/mL
[2]; [6]
  Sildenafil-N-oxide Dialysate concentration: <1.0 ng/mL
  Sildenafil-N-oxide Lumen concentration: 4.9 ng/mL
[2]; [7]
  Sildenafil-N-oxide Dialysate concentration: <1.0 ng/mL
  Sildenafil-N-oxide Lumen concentration: 6.7 ng/mL
[2]; [8]
  Sildenafil-N-oxide Dialysate concentration: <1.0 ng/mL
  Sildenafil-N-oxide Lumen concentration: 2.7 ng/mL
[2]; within 2 hours after dosing
  reduction to sildenafil in TIM2: nearly quantitatively reduced to sildenafil
PDE-III
  IC50: > 10 µM
